From patent US20010027175A1, “Use of certain drugs for treating nerve root injury” (priority 1998, published 2001)

Legend:
[1] = biological target: inducible nitrogen oxide synthetase (Homo sapiens, UniProt P35228); settings: by inhibiting inducible nitrogen oxide synthetase; cited from earlier work
[2] = system: nucleus pulposus-induced reduction of nerve root conduction velocity (sacrococcygeal cauda equina); test: Series-2: nerve root conduction velocity three days after autologous nucleus pulposus application to the cauda equina; assay type: in vivo; settings: pig, mean ± SD
Experimental: Series-2: Nucleus pulposus was harvested from lumbar discs and applied to the sacrococcygeal cauda equina in 13 pigs autologously. […] Three days after the application the nerve root conduction velocity was determined over the application zone by local electrical stimulation.
Thirteen pigs, (body weight 25-30 kg) received an intramuscular injection of 20 mg/kg body weight of Ketala (ketamine 50 mg/ml, Parke-Davis, Morris Plains, N.J.) and an intravenous injection of 4 mg/kg body weight of Hypnodil^R (methomidate chloride 50 mg/ml, AB Leo, Helsingborg, Sweden) and 0.I mg/kg body weight of Stresnil^R (azaperon 2 mg/ml, Janssen Pharmaceutica, Beerse, Belgium). […]
Three days after the application, the pigs were reanaesthetized by an intramuscular injection of 20 mg/kg body weight of Ketalar^R and an intravenous injection of 35 mg/kg body weight of Pentothal^R (Thiopental sodium, Abbott lab, Chicago, Ill.). […] Local tissue temperature was continuously monitored and maintained at 37.5-38.0° C. by means of a heating lamp. […]
The person performing the neurophysiologic analyses was unaware of the experimental protocol for the individual animal, and after finishing the complete study the data were arranged in the three experimental groups and statistical differences between the groups were assessed by Student's t-test. […]

[3] = system: nucleus pulposus-related effects on adjacent nerve roots; settings: literature refs 38, 2, 3, 69; cited from earlier work
[4] = system: nucleus pulposus-induced reduction of nerve root conduction velocity (sacrococcygeal cauda equina); test: Series-3: nerve root conduction velocity seven days after autologous nucleus pulposus application to the cauda equina; assay type: in vivo; settings: pig; for NCV (m/s ± SD): seven days after nucleus pulposus application, mean ± SD; for block of nucleus pulposus induced nerve injury (in words): seven days, systemic treatment
Experimental: Series-3: Thirteen pigs had autologous nucleus pulposus placed onto their sacrococcygeal cauda equina similar to series-2. Five pigs (bodyweight 25 kg) received Remicade^R (infliximab) 100 mg i.v. preoperatively, and 8 pigs received EnbrelR (etanercept) 12.5 mg s.c. preoperatively and additionally 12.5 mg s.c. three days after the operation. Seven days after the nucleus pulposus-application the nerve root conduction velocity was determined over the application zone by local electrical stimulation according to series-2. Five pigs (bodyweight 25 kg) received the human/murine monoclonal antibody Remicade^R (infliximab, […]) 100 mg i.v. preoperatively, and 8 pigs received Enbrel^R (etanercept, […]) 12.5 mg s.c. preoperatively and additionally 12.5 mg s.c. three days after the operation. Seven days after the nucleus pulposus-application the nerve root conduction velocity was determined over the application zone by local electrical stimulation according to series-2. […] No non-treated animals were included in the series-3 due to the pre-existing knowledge of nerve conduction velocity after seven days of either nucleus pulposus or fat (control) application. The statistical difference between the groups, infliximab, and etanercept, nucleus pulposus without treatment (positive control from previous data) and application of retroperitoneal fat (negative control from previous data) was assessed by using ANOVA and Fisher's PLSD at 5%.

inducible nitrogen oxide synthetase, sequence (P35228 whole entry): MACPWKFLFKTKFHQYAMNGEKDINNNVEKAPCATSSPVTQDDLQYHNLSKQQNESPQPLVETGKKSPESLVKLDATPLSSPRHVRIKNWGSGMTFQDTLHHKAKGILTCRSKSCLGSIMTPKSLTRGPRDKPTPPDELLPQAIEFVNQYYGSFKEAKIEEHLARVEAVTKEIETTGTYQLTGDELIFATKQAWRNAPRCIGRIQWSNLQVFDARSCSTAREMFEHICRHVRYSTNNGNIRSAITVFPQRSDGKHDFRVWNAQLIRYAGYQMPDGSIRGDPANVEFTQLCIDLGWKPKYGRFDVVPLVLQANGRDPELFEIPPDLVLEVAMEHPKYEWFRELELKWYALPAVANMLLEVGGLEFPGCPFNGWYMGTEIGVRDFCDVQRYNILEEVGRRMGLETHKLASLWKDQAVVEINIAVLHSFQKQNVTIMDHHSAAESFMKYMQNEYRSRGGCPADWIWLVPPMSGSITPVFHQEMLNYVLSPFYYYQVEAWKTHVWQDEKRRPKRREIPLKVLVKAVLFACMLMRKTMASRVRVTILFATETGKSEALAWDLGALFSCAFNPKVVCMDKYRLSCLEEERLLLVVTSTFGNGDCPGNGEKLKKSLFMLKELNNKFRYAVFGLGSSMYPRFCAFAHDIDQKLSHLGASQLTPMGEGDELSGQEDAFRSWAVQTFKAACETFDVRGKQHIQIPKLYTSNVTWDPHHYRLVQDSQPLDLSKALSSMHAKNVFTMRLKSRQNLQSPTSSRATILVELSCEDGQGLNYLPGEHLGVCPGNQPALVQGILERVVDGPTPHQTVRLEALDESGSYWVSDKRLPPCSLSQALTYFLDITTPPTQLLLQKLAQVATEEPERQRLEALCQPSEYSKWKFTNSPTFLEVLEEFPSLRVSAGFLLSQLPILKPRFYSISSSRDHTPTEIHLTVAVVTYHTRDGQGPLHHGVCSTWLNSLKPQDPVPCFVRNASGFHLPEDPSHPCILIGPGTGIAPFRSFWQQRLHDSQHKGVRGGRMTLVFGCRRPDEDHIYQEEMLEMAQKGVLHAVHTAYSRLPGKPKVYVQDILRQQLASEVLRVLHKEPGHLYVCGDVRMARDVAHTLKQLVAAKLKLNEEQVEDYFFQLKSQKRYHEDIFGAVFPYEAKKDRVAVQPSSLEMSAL

Q: With `N=C(N)NN` [Aminoguanidine] as the compound, how does the “inhibition of release of nitrogen oxide (NO) at nerve root injuries (in words)” value [1] read?
A: The value was “inhibit the release of nitrogen oxide (NO)”.

Q: Which “NCV (m/s ± SD)” value [2] does the source give for `C[C@H]1c2cccc(O)c2C(=O)C2=C(O)[C@]3(O)C(=O)C(C(N)=O)=C(O)[C@@H](N(C)C)[C@@H]3[C@@H](O)[C@@H]21` [Doxycycline, doxycycline] here?
A: The value was 76 ± 9 m/s.

Q: Which “block of nucleus pulposus-related effects (in words)” value [3] does the source give for `COc1ccc2c(c1)c(CC(=O)O)c(C)n2C(=O)c1ccc(Cl)cc1` [indomethacin] here?
A: Its value is “slightly less efficiently”.

Q: Which “block of nucleus pulposus-related effects (in words)” value [3] does the source give for `CCN(CC)CC(=O)Nc1c(C)cccc1C` [lidocaine] here?
A: The value was “slightly less efficiently”.

Q: For cyclosporin A, which “block of nucleus pulposus-related effects (in words)” value [3] is on record?
A: The value was “blocked efficiently”.

Q: What does the source list for etanercept [Embrel^R]?
A: NCV (m/s ± SD) [4]: 78 ± 14 m/s; block of nucleus pulposus induced nerve injury (in words) [4]: blocked the nucleus pulposus induced nerve injury efficiently

Q: With infliximab [Remicade^R] as the compound, how does the “NCV (m/s ± SD)” value [4] read?
A: The value was 79 ± 15 m/s.

Q: And the “block of nucleus pulposus induced nerve injury (in words)” value [4]?
A: Its value is “blocked the nucleus pulposus induced nerve injury efficiently”.
